How the values were obtained:
Type in all cases: in vivo
Cyperus esculentus = experiment: Exemple A: herbicide application, pre-emergence; conditions: notation 0 à 5 after 24 days
Source text: (§1) Exemple A - Application herbicide, en prélevée des espèces végétales
(§2) Dans des pots de 7 x 7 x 8 cm remplis de terre agricole légère, on sème un nombre de graines déterminé en fonction de l'espèce végétale et de la grosseur de la graine.
(§3) Les pots sont traités par pulvérisation de bouillie en quantité correspondant à une dose volumique d'application de 500 l/ha et contenant la matière active à la concentration désirée.
(§4) Le traitement avec la bouillie est donc effectué sur des graines non recouvertes de terre (on utilise le terme de bouillie pour désigner, en général, les compositions diluées à l'eau, telles qu'on les applique sur les végétaux).
(§5) La bouillie utilisée pour le traitement est une solution ou suspension de la matière active dans un mélange acétone/eau en proportions 50/50, en présence de 0,05 % en poids de cemulsol NP 10 (agent tensio-actif) constitué d'alkylphénol polyéthoxylé, notamment de nonylphénol polyéthoxylé) et 0,04 % en poids de tween 20 (agent tensio-actif constitué d'un oléate de dérivé polyoxyéthyléné du sorbitol).
(§6) Dans le cas d'une suspension, celle-ci est obtenue en mélangeant et broyant les ingrédients dans un microniseur de façon à obtenir une grosseur moyenne de particules inférieure à 40 microns.
(§7) Après traitement, on recouvre les graines d'une couche de terre d'environ 3 mm d'épaisseur.
(§8) Les pots sont alors placés dans des bacs destinés à recevoir l'eau d'arrosage, en subirrigation, et maintenus pendant 24 jours à température ambiante sous 70 % d'humidité relative.
(§9) Le relevé est effectué de la façon suivante:
(§10) Au bout de 24 jours, on mesure un pourcentage (D) des destructions du nombre de pieds dans le pot traité par rapport au nombre de plantes dans les pots non traités (témoin). On mesure, sur les plantes traitées restantes, le pourcentage de réduction de taille (RT) par rapport aux plantes témoin.
(§11) Le pourcentage du volume foliaire non détruit par le produit est donc donné par la formule: ([100-D] x [100-RT])/(100)= A [formula]
(§12) Cette valeur A est transformée en notation de 0 à 5 selon l'échelle suivante:
(§13) Les résultats obtenus sont présentés après l'exemple B pour des doses d'application de 4000 g/ha à 1000 g/ha.
(§14) Les espèces végétales utilisées dans ces exemples A et B sont: […]

Digitaria sanguinalis [1] = experiment: Exemple A: herbicide application, pre-emergence; conditions: notation 0 à 5 after 24 days
Source text: as §1, §2, §3, §4, §5, §6, §7, §8, §9, §10, §11, §12, §13, §14

Echinochloa crus galli = experiment: Exemple A: herbicide application, pre-emergence; conditions: notation 0 à 5 after 24 days
Source text: as §1, §2, §3, §4, §5, §6, §7, §8, §9, §10, §11, §12, §13, §14

Avena fatua = experiment: Exemple A: herbicide application, pre-emergence; conditions: notation 0 à 5 after 24 days
Source text: as §1, §2, §3, §4, §5, §6, §7, §8, §9, §10, §11, §12, §13, §14

Alopecurus myosuroïdes = experiment: Exemple A: herbicide application, pre-emergence; conditions: notation 0 à 5 after 24 days
Source text: as §1, §2, §3, §4, §5, §6, §7, §8, §9, §10, §11, §12, §13, §14

blé = experiment: Exemple C: selectivity test in field crops, pre-emergence (crop); conditions: dose 1 Kg m.a./ha, 24 days, 0 or 1 = selective; note: ranges in brackets are in %
Source text: (§15) Exemple C - Essai de sélectivité en grandes cultures avec application herbicide, en prélevée des espèces végétales
(§16) Dans des pots de 7 X 7 X 8 cm remplis de terre agricole légère, on sème un nombre de graines déterminé en fonction de l'espèce végétale et de la grosseur de la graine.
(§17) On recouvre ensuite les graines d'une couche de terre d'environ 3 mm d'épaisseur.
(§18) Les pots sont alors traités par pulvérisation de bouillie en quantité correspondant à une dose volumique d'application de 500 l/ha et contenant la matière active à la concentration désirée.
(§19) La bouillie a été préparée de la même manière qu'à l'exemple A.
(§20) Les pots traités sont ensuite placés dans des bacs destinés à recevoir l'eau d'arrosage, en subirrigation, et maintenus pendant 24 jours à température ambiante sous 70 % d'humidité relative.
as §9
(§21) Au bout de 24 jours, on mesure un pourcentage (D) de destruction du nombre de pieds dans le pot traité par rapport au nombre de plantes dans les pots non traités (témoin). On mesure, sur les plantes traitées restantes, le pourcentage de réduction de taille (RT) par rapport aux plantes témoins.
(§22) Le pourcentage de volume foliaire non détruit par le produit est donc donné par la formule: ([100-D] X [100-RT])/(100)= A [formula]
as §12
(§23) Ainsi, un produit est jugé comme sélectif vis à vis de la culture lorsque la valeur A notée est de 0 ou 1.
(§24) Les résultats obtenus sont présentés dans l'exemple C pour des doses d'application de 500, 1000, 2000 ou 4000 g de matière active par hectare selon les produits.
(§25) Les espèces végétales utilisées dans cet exemple sont:
(§26) Comme on peut le voir sur le tableau de résultats de cet exemple C, de nombreux produits présentent une excellente activité antigraminée de prélevée tout en montrant une excellente sélectivité pour 1 ou 2 ou 3 ou 4 des 4 cultures testées = blé, maïs, riz, soja.

maïs = experiment: as above; conditions: dose 1 Kg m.a./ha, 24 days, 0 or 1 = selective; note: ranges in brackets are in %
Source text: as §15, §16, §17, §18, §19, §20, §9, §21, §22, §12, §23, §24, §25, §26

riz = experiment: as above; conditions: dose 1 Kg m.a./ha, 24 days, 0 or 1 = selective; note: ranges in brackets are in %
Source text: as §15, §16, §17, §18, §19, §20, §9, §21, §22, §12, §23, §24, §25, §26

soja = experiment: as above; conditions: dose 1 Kg m.a./ha, 24 days, 0 or 1 = selective; note: ranges in brackets are in %
Source text: as §15, §16, §17, §18, §19, §20, §9, §21, §22, §12, §23, §24, §25, §26

Setaria faberii = experiment: Exemple C: selectivity test in field crops, pre-emergence (weed); conditions: dose 1 Kg m.a./ha, 24 days
Source text: as §15, §16, §17, §18, §19, §20, §9, §21, §22, §12, §23, §24
(§27) Les espèces végétales utilisées dans cet exemple sont: […]

Alopecurus myosuroides = experiment: as above; conditions: dose 1 Kg m.a./ha, 24 days
Source text: as §15, §16, §17, §18, §19, §20, §9, §21, §22, §12, §23, §24, §27

Echinochloa crus-galli = experiment: as above; conditions: dose 1 Kg m.a./ha, 24 days
Source text: as §15, §16, §17, §18, §19, §20, §9, §21, §22, §12, §23, §24, §27

Panicum milicaeum = experiment: as above; conditions: dose 1 Kg m.a./ha, 24 days
Source text: as §15, §16, §17, §18, §19, §20, §9, §21, §22, §12, §23, §24, §27

Digitaria sanguinalis [2] = experiment: as above; conditions: dose 1 Kg m.a./ha, 24 days
Source text: as §15, §16, §17, §18, §19, §20, §9, §21, §22, §12, §23, §24, §27

Sorghum halepense = experiment: as above; conditions: dose 1 Kg m.a./ha, 24 days
Source text: as §15, §16, §17, §18, §19, §20, §9, §21, §22, §12, §23, §24, §27

C=C(CS(=O)(=O)c1cccs1)c1cccc(F)c1 [compound 3, 2-(3-fluorophényl) 1-(2-thiénylsulfonyl) 2-propène]
ACTIVITE HERBICIDE DE PRELEVEE CYP (Cyperus esculentus; dose 1 Kg m.a./ha): 5 (O à 10) | ACTIVITE HERBICIDE DE PRELEVEE DIG (Digitaria sanguinalis [1]; dose 1 Kg m.a./ha): 5 (O à 10) | ACTIVITE HERBICIDE DE PRELEVEE ECH (Echinochloa crus galli; dose 1 Kg m.a./ha): 5 (O à 10) | ACTIVITE HERBICIDE DE PRELEVEE AVE (Avena fatua; dose 1 Kg m.a./ha): 1 (70 à 90) | ACTIVITE HERBICIDE DE PRELEVEE ALO (Alopecurus myosuroïdes; dose 1 Kg m.a./ha): 5 (O à 10)

C=C(CS(=O)(=O)c1cccs1)c1cc(F)cc(F)c1 [compound 7, 2-(3,5-difluorophényl) 1-(2-thiénylsulfonyl) 2-propène]
ACTIVITE HERBICIDE DE PRELEVEE CYP (Cyperus esculentus; dose 1 Kg m.a./ha): 1 (70 à 90) | ACTIVITE HERBICIDE DE PRELEVEE DIG (Digitaria sanguinalis [1]; dose 1 Kg m.a./ha): 5 (O à 10) | ACTIVITE HERBICIDE DE PRELEVEE ECH (Echinochloa crus galli; dose 1 Kg m.a./ha): 5 (O à 10) | ACTIVITE HERBICIDE DE PRELEVEE AVE (Avena fatua; dose 1 Kg m.a./ha): 1 (70 à 90) | ACTIVITE HERBICIDE DE PRELEVEE ALO (Alopecurus myosuroïdes; dose 1 Kg m.a./ha): 5 (O à 10)

C=C(CS(=O)(=O)c1cccs1)c1cccc(Cl)n1 [compound 4, 2-(6-chloro 2-pyridyl) 1-(2-thiénylsulfonyl) 2-propène]
ACTIVITE HERBICIDE DE PRELEVEE CYP (Cyperus esculentus; dose 4 Kg m.a./ha): 5 (O à 10) | ACTIVITE HERBICIDE DE PRELEVEE DIG (Digitaria sanguinalis [1]; dose 4 Kg m.a./ha): 5 (O à 10) | ACTIVITE HERBICIDE DE PRELEVEE ECH (Echinochloa crus galli; dose 4 Kg m.a./ha): 5 (O à 10) | ACTIVITE HERBICIDE DE PRELEVEE AVE (Avena fatua; dose 4 Kg m.a./ha): 3 (30 à 50) | ACTIVITE HERBICIDE DE PRELEVEE ALO (Alopecurus myosuroïdes; dose 4 Kg m.a./ha): 5 (O à 10)

C=C(CS(=O)(=O)c1sccc1Br)c1cccc(F)c1 [compound 9, 1-[(3-bromo 2-thiényl)sulfonyl] 2-(3-fluorophényl)2-propène]
ACTIVITE HERBICIDE DE PRELEVEE CYP (Cyperus esculentus; dose 4 Kg m.a./ha): 4 (10 à 30) | ACTIVITE HERBICIDE DE PRELEVEE DIG (Digitaria sanguinalis [1]; dose 4 Kg m.a./ha): 5 (O à 10) | ACTIVITE HERBICIDE DE PRELEVEE ECH (Echinochloa crus galli; dose 4 Kg m.a./ha): 5 (O à 10) | ACTIVITE HERBICIDE DE PRELEVEE AVE (Avena fatua; dose 4 Kg m.a./ha): 5 (O à 10) | ACTIVITE HERBICIDE DE PRELEVEE ALO (Alopecurus myosuroïdes; dose 4 Kg m.a./ha): 5 (O à 10)

C=C(CS(=O)(=O)c1sc(C)nc1C)c1cccc(F)c1 [compound 45]
Notation de l'activité herbicide TRZ (blé): 1 (70 à 90) | Notation de l'activité herbicide ZEA (maïs): 0 (90 à 100) | Notation de l'activité herbicide ORY (riz): 0 (90 à 100) | Notation de l'activité herbicide GLY (soja): 0 (90 à 100) | Notation de l'activité herbicide SET (Setaria faberii): 3 (30 à 50) | Notation de l'activité herbicide ALO (Alopecurus myosuroides): 5 (O à 10) | Notation de l'activité herbicide ECh (Echinochloa crus-galli): 5 (O à 10) | Notation de l'activité herbicide PAN (Panicum milicaeum): 5 (O à 10) | Notation de l'activité herbicide DIG (Digitaria sanguinalis [2]): 4 (10 à 30) | Notation de l'activité herbicide SOR (Sorghum halepense): 5 (O à 10)

From patent EP0435794A1, “Alkenyl- or heteroaryl thio, sulfone, sulfoxy herbicides” (RHONE-POULENC AGROCHIMIE, priority 1989, dated 1991)
